Source: PubChem BioAssay (NCI)
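All cell lines were grown in 96-well plates and treated with compound for 48 hours. Abbreviation: GI50, concentration required for 50% inhibition of growth. TGI: concentration producing complete growth inhibition.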

Assays:
Experiment in all cases: inhibition of tumour cell growth, NCI panel, 48 h
OVCAR-5 ovarian = tested on: OVCAR-5 ovarian
MALME-3M melanoma = tested on: MALME-3M melanoma
EKVX NSCLC = tested on: EKVX NSCLC
SK-MEL-28 melanoma = tested on: SK-MEL-28 melanoma
U251 CNS = tested on: U251 CNS
MDA-MB-231 breast = tested on: MDA-MB-231 breast
MDA-MB-435 = tested on: MDA-MB-435
TK-10 renal = tested on: TK-10 renal
786-0 renal = tested on: 786-0 renal
SF-539 CNS = tested on: SF-539 CNS
SK-MEL-2 melanoma = tested on: SK-MEL-2 melanoma
RPMI-8226 leukemia = tested on: RPMI-8226 leukemia
IGROV1 ovarian = tested on: IGROV1 ovarian
SNB-75 CNS = tested on: SNB-75 CNS
SK-MEL-5 melanoma = tested on: SK-MEL-5 melanoma
HL-60(TB) leukemia = tested on: HL-60(TB) leukemia
LOX IMVI melanoma = tested on: LOX IMVI melanoma
HCC-2998 colon = tested on: HCC-2998 colon
T-47D breast = tested on: T-47D breast
KM12 colon = tested on: KM12 colon
HOP-62 NSCLC = tested on: HOP-62 NSCLC
OVCAR-4 ovarian = tested on: OVCAR-4 ovarian
MOLT-4 leukemia = tested on: MOLT-4 leukemia
OVCAR-3 ovarian = tested on: OVCAR-3 ovarian
DU-145 prostate = tested on: DU-145 prostate
SNB-19 CNS = tested on: SNB-19 CNS
NCI-H522 lung = tested on: NCI-H522 lung
M14 melanoma = tested on: M14 melanoma
HS 578T breast = tested on: HS 578T breast
BT-549 breast = tested on: BT-549 breast
PC-3 prostate = tested on: PC-3 prostate
A549 NSCLC = tested on: A549 NSCLC
HCT-15 colon = tested on: HCT-15 colon
SK-OV-3 ovarian = tested on: SK-OV-3 ovarian
OVCAR-8 ovarian = tested on: OVCAR-8 ovarian
MCF7 breast = tested on: MCF7 breast
SN12C renal = tested on: SN12C renal
SF-268 CNS = tested on: SF-268 CNS
NCI-H23 lung = tested on: NCI-H23 lung
SW-620 colon = tested on: SW-620 colon
CAKI-1 renal = tested on: CAKI-1 renal
ACHN renal = tested on: ACHN renal
NCI/ADR-RES ovarian = tested on: NCI/ADR-RES ovarian
CCRF-CEM leukemia = tested on: CCRF-CEM leukemia
UO-31 renal = tested on: UO-31 renal
COLO 205 colon = tested on: COLO 205 colon
A498 renal = tested on: A498 renal
NCI-H226 lung = tested on: NCI-H226 lung
HT29 colon = tested on: HT29 colon
K-562 leukemia = tested on: K-562 leukemia
UACC-62 melanoma = tested on: UACC-62 melanoma
HOP-92 NSCLC = tested on: HOP-92 NSCLC
UACC-257 melanoma = tested on: UACC-257 melanoma
NCI-H460 lung = tested on: NCI-H460 lung
SF-295 CNS = tested on: SF-295 CNS

O=c1cc(N2CCNCC2)oc2c(-c3ccccc3)cccc12
GI50 (OVCAR-5 ovarian): > 100 µM
TGI (OVCAR-5 ovarian): > 100 µM
GI50 (MALME-3M melanoma): 23.6 µM
TGI (MALME-3M melanoma): 56.8 µM
GI50 (EKVX NSCLC): 19.8 µM
TGI (EKVX NSCLC): > 100 µM
GI50 (SK-MEL-28 melanoma): 39.6 µM
TGI (SK-MEL-28 melanoma): > 100 µM
GI50 (U251 CNS): 35.4 µM
TGI (U251 CNS): > 100 µM
GI50 (MDA-MB-231 breast): 24.1 µM
TGI (MDA-MB-231 breast): > 100 µM
GI50 (MDA-MB-435): 20.9 µM
TGI (MDA-MB-435): 98.8 µM
GI50 (TK-10 renal): 27.9 µM
TGI (TK-10 renal): > 100 µM
GI50 (786-0 renal): 33.7 µM
TGI (786-0 renal): > 100 µM
GI50 (SF-539 CNS): 68 µM
TGI (SF-539 CNS): > 100 µM
GI50 (SK-MEL-2 melanoma): 51.5 µM
TGI (SK-MEL-2 melanoma): > 100 µM
GI50 (RPMI-8226 leukemia): 15.3 µM
TGI (RPMI-8226 leukemia): 38.5 µM
GI50 (IGROV1 ovarian): 31.8 µM
TGI (IGROV1 ovarian): > 100 µM
GI50 (SNB-75 CNS): 15.3 µM
TGI (SNB-75 CNS): 75 µM
GI50 (SK-MEL-5 melanoma): 14.8 µM
TGI (SK-MEL-5 melanoma): 32.5 µM
GI50 (HL-60(TB) leukemia): 29.4 µM
TGI (HL-60(TB) leukemia): > 100 µM
GI50 (LOX IMVI melanoma): 31.7 µM
TGI (LOX IMVI melanoma): > 100 µM
GI50 (HCC-2998 colon): 18.1 µM
TGI (HCC-2998 colon): 39.8 µM
GI50 (T-47D breast): 26.6 µM
TGI (T-47D breast): > 100 µM
GI50 (KM12 colon): 43.9 µM
TGI (KM12 colon): > 100 µM
GI50 (HOP-62 NSCLC): 65.4 µM
TGI (HOP-62 NSCLC): > 100 µM
GI50 (OVCAR-4 ovarian): 52.7 µM
TGI (OVCAR-4 ovarian): > 100 µM
GI50 (MOLT-4 leukemia): 19.4 µM
TGI (MOLT-4 leukemia): 56.8 µM
GI50 (OVCAR-3 ovarian): 24.6 µM
TGI (OVCAR-3 ovarian): > 100 µM
GI50 (DU-145 prostate): 59 µM
TGI (DU-145 prostate): > 100 µM
GI50 (SNB-19 CNS): 34.5 µM
TGI (SNB-19 CNS): > 100 µM
GI50 (NCI-H522 lung): 37 µM
TGI (NCI-H522 lung): > 100 µM
GI50 (M14 melanoma): 15.6 µM
TGI (M14 melanoma): 29.1 µM
GI50 (HS 578T breast): 9.75 µM
TGI (HS 578T breast): > 100 µM
GI50 (BT-549 breast): > 100 µM
TGI (BT-549 breast): > 100 µM
GI50 (PC-3 prostate): 32 µM
TGI (PC-3 prostate): > 100 µM
GI50 (A549 NSCLC): 23.3 µM
TGI (A549 NSCLC): 76.2 µM
GI50 (HCT-15 colon): 34.7 µM
TGI (HCT-15 colon): > 100 µM
GI50 (SK-OV-3 ovarian): 13.8 µM
TGI (SK-OV-3 ovarian): 42.2 µM
GI50 (OVCAR-8 ovarian): 74.2 µM
TGI (OVCAR-8 ovarian): > 100 µM
GI50 (MCF7 breast): 40.7 µM
TGI (MCF7 breast): > 100 µM
GI50 (SN12C renal): 45.1 µM
TGI (SN12C renal): > 100 µM
GI50 (SF-268 CNS): 46.3 µM
TGI (SF-268 CNS): > 100 µM
GI50 (NCI-H23 lung): > 100 µM
TGI (NCI-H23 lung): > 100 µM
GI50 (SW-620 colon): 82.9 µM
TGI (SW-620 colon): > 100 µM
GI50 (CAKI-1 renal): 26.8 µM
TGI (CAKI-1 renal): > 100 µM
GI50 (ACHN renal): 34.1 µM
TGI (ACHN renal): > 100 µM
GI50 (NCI/ADR-RES ovarian): > 100 µM
TGI (NCI/ADR-RES ovarian): > 100 µM
GI50 (CCRF-CEM leukemia): 25.5 µM
TGI (CCRF-CEM leukemia): 69.5 µM
GI50 (UO-31 renal): 24 µM
TGI (UO-31 renal): > 100 µM
GI50 (COLO 205 colon): 11.3 µM
TGI (COLO 205 colon): 27.8 µM
GI50 (A498 renal): 25 µM
TGI (A498 renal): 74.8 µM
GI50 (NCI-H226 lung): > 100 µM
TGI (NCI-H226 lung): > 100 µM
GI50 (HT29 colon): 24.8 µM
TGI (HT29 colon): > 100 µM
GI50 (K-562 leukemia): 13.1 µM
TGI (K-562 leukemia): 47 µM
GI50 (UACC-62 melanoma): 25.2 µM
TGI (UACC-62 melanoma): > 100 µM
GI50 (HOP-92 NSCLC): 17.3 µM
TGI (HOP-92 NSCLC): > 100 µM
GI50 (UACC-257 melanoma): 13.6 µM
TGI (UACC-257 melanoma): 29.1 µM
GI50 (NCI-H460 lung): 48.7 µM
TGI (NCI-H460 lung): > 100 µM
GI50 (SF-295 CNS): 39.8 µM
TGI (SF-295 CNS): > 100 µM
